Measurements published in patent US20240002379A1, “ASYMMETRIC CONJUGATE COMPOUNDS” (Pheon Therapeutics Ltd., priority 2016, published 2024).

Key:
Type in all cases: binding
[1] = system: fluorescently labelled DNA duplex 5′-[…]-3′; test: FRET DNA melting, FIG. 17 bottom sequence; conditions: at higher concentrations; intra-strand cross-links
Excerpt: (§1) Further FRET DNA melting studies were undertaken on a number of molecules using three fluorescently labelled sequences. The sequences (FIG. 17) were designed to provide additional evidence that the series can form inter- and intrastrand cross-links. Inosines were inserted in place of traditional DNA bases in some cases to limit the number of binding sites available for the compounds to interact with. The short duplexes used in this FRET study are relatively unstable in the duplex form with a melting temperature below 30° C. so that, in the absence of ligand, a large part of the melting occurs below the starting temperature of the experiment. […] Increasing concentrations of 13 cause a greater amount of the melting transition to appear at the higher temperature (i.e. a greater number of the DNA molecules are cross-linked). […]
(§2) The reaction mixture was comprised of 4 μL of 250 mM phosphate buffer (final concentration of 50 mM), 4 μL flourophor and 4 μL quencher molecule of the appropriate oligonucleotide for a final concentration of 0.2 PM, 4 μL 5 M sodium chloride (final concentration of 1 M NaCl), and 4 μL of distilled H2O. […] This mixture was analysed without prior annealing.
(§3) Fluorescence melting profiles were measured using a Roche LightCycler using a total reaction volume of 20 μL. […] Annealing steps and melting steps were all recorded and changes in fluorescence were measured at 520 nm. […]

[2] = system: fluorescently labelled DNA duplex 5′-[…]-3′; test: FRET DNA melting, FIG. 17 middle sequence; conditions: suggests interstrand cross-link formation
Excerpt: as §1, §2, §3

[3] = system: fluorescently labelled DNA duplex 5′-[…]-3′; test: FRET DNA melting, FIG. 13 bottom duplex (intrastrand)
Excerpt: FRET DNA melting studies were undertaken on 13 using two fluorescently labelled sequences. The sequences (FIG. 13) were designed to provide additional evidence that 13 can form inter- and intrastrand cross-links. Inosines were inserted in place of traditional DNA bases to limit the number of binding sites available for 13 to interact with.
Oligonucleotides were obtained from ATDbio (Southampton, UK) in lyophilised form. They were labelled with a fluorophore molecule (F=fluorescein) at the 5′-end and a quencher molecule (Q=dabcyl) at the 3′-end of the complementary strand. Each oligonucleotide was dissolved in distilled H2O to form stock solutions of 100 PM. Working solutions of 5 μM were prepared by diluting the stock solution with distilled H2O. […]
as §2, §3

| Compound | Tm [1] [°C] | Tm value [2] [°C] | change of melting temperature with compound concentration ([3]; FIG. 14 bottom panel) | Tm value ([3]; duplex alone melts below 30° C., suggests intra-strand cross-link) [°C] |
| --- | --- | --- | --- | --- |
| COc1cc2c(cc1OCc1cccc(CC(=O)N3C[C@@H](CCl)c4c3cc(O)c3ccccc43)c1)N=C[C@@H]1CCCCN1C2=O [Compound 42, (S)-3-((3-(2-((S)-1-(Chloromethyl)-5-hydroxy-1,2-dihydro-3H-benzo[e]indol-3-yl)-2-oxoethyl)benzyl)oxy)-2-methoxy-7,8,9,10-tetrahydrobenzo[e]pyrido[1,2-a][1,4]diazepin-12(6aH)-one] | ~80 | ~80 |  |  |
| COc1cc2c(cc1OCCCC(=O)N1C[C@@H](CCl)c3c1cc(O)c1ccccc31)N=C[C@@H]1CCCCN1C2=O [Compound 13, (S)-3-(4-((S)-1-(Chloromethyl)-5-hydroxy-1,2-dihydro-3H-benzo[e]indol-3-yl)-4-oxobutoxy)-2-methoxy-7,8,9,10-tetrahydrobenzo[e]-pyrido[1,2-a][1,4]diazepin-12(6aH)-one] |  |  | increases significantly | 60 |
